One data set is described as follows: in vivo. Particulars: rat. As for the experimental part: Experiments were performed with rats wherein each animal received an aqueous microenema applied to the rectal cavity. The microenemas contained target drug entity (amount shown in table) in the presence or absence of 5 mg lauroylcholine chloride or palmitoylcholine iodide. Blood levels were monitored and the amount of drug absoreed calculated against intravenous administration and expressed as percent bioavailability.
The amount of drug absorbed is expressed as percent bioavailability versus intravenous administration
Blood was collected and sodium cefoxitin measured. Absorption of sodium cefoxitin is expressed as percent bioavailability versus intravenous administration.

Data set [1] can be described thus: Small intestinal (duodenal) absorption from aqueous solution in rats, percent bioavailability versus intravenous administration. The format is in vivo. Particulars: vs intravenous. As for the experimental part:
Blood levels were monitored and the amount of polypeptide absorbed calculated against intravenous administration and expressed as percent bioavailability.
Experiments were performed as in Example 5. The solutions contained 10 mg/kg of cefoxitin and 20 mg/kg of absorption promoters. Blood levels of cefoxitin were monitored and the bioavailability of cefoxitin absorbed was calculated against intravenous administration.

This note sets out measurements from patent US4822773A (Merck & Co., Inc., priority 1987, dated 1989).

For orientation: bioavailability means the share of a dose that reaches the circulation, judged against a reference dose that is usually intravenous.

On to `Nc1ccn([C@@H]2O[C@H](CO)[C@@H](O)[C@@H]2O)c(=O)n1` [Cytarabine], for which the “Percent Bioavailability (mean ± SD) with Control” value in “in vivo” is 0.5 ± 0.1%.

With `CO[C@@]1(NC(=O)Cc2cccs2)C(=O)N2C(C(=O)O)=C(COC(N)=O)CS[C@@H]21` [Sodium cefoxitin], the “Percent Bioavailability (mean ± SD) with Control” value in “in vivo” was 2 ± 1.1%. In the data set “in vivo” (pH 6), the “Sodium Cefoxitin Percent Bioavailability (mean ± SD), compound None” value is recorded as 2 ± 1.1%. Moreover, the “Percent Bioavailability (mean ± SD) of cefoxitin, adjuvant None” value in data set [1] (duodenal solution, 10 mg/kg cefoxitin alone) is listed as 2 ± 1.1%.

As to `Cn1c(=O)c2[nH]cnc2n(C)c1=O` [Theophylline], in “in vivo”, the “Absorption of the drug by itself” value was “absorbed well by itself” and the “Percent Bioavailability (mean ± SD) with Control” value came to 75 ± 3.3%.

Consider `CC(C)[C@@H]1NC(=O)[C@H](CCCCN)NC(=O)[C@@H](Cc2c[nH]c3ccccc23)NC(=O)[C@H](Cc2ccc(O)cc2)NC(=O)[C@H](C)N(C)C(=O)[C@H](Cc2ccccc2)NC1=O` [cyclo(N--Me--Ala--Try--DTrp--Lys--Val--Phe)acetate], for which the bioavailability turned out to be 7 ± 3.5% in “in vivo” (Percent Bioavailability (mean ± SD) with Control) and 1% in data set [1] (rat, blood, aqueous solution applied to duodenal region, 0.1 mg polypeptide alone, read-out: Percent Bioavailability (mean ± SD), adjuvant None).
